Converted amounts (≈) assume the structure as drawn. *1 amine or outer side, *2 acyl side, *3 side chain or, on linkers, in order; H or OH if unused. Where a SMILES comes first, the peptide text is derived from it. Bridges are numbered along the chain shown (N, C = ends). Roman numbers before positions name the chains, in order. [ ]: non-standard residue; d: D form. Actinocin(1to9) = Cc1c2oc3c(C)ccc(C(=O)[*:2])c3nc-2c(C(=O)[*:1])c(N)c1=O; NMeV = CN[C@H](C(=O)O)C(C)C; Sar = CNCC(=O)O
Key:
Type in all cases: functional
HepG2 = assay: Cytotoxicity against human HepG2 cells after 48 hrs by sulforhodamine assay; conditions: HepG2, 48 h
Bacillus subtilis = assay: Antibacterial activity against Bacillus subtilis ATCC 6051 after 18 hrs; conditions: ATCC 6051, 18 h
MCF7 = assay: Cytotoxicity against human MCF7 cells after 48 hrs by sulforhodamine assay; conditions: MCF7, 48 h; for CC50: read-out: LC50 (the source's name)
[1] = Cytotoxicity against human HMO2 cells after 48 hrs by sulforhodamine assay; conditions: HMO2, 48 h; for CC50: read-out: LC50 (the source's name)

| SMILES | GI50 (HepG2) | LC50 (HepG2) | TGI (HepG2) | MIC (Bacillus subtilis) | GI50 (MCF7) | TGI (MCF7) | CC50 (MCF7) | GI50 [1] | TGI [1] | CC50 [1] |
| --- | --- | --- | --- | --- | --- | --- | --- | --- | --- | --- |
| Cc1c2oc3c(C)ccc(C(=O)N[C@@H]4C(=O)N[C@H](C(C)C)C(=O)N5[C@H](C(=O)N(C)CC(=O)N(C)[C@@H](C(C)C)C(=O)O[C@@H]4C)[C@@H](O)C[C@@H]5C)c3nc-2c(C(=O)N[C@@H]2C(=O)N[C@H](C(C)C)C(=O)N3[C@@H](C)C(=O)C[C@H]3C(=O)N(C)CC(=O)N(C)[C@@H](C)C(=O)O[C@H]2CCl)c(N)c1=O [ACTINOMYCIN Z3] | < 100 nM | > 50 µM | 1.4 µM | 0.2 µg/mL (≈ 0.152 µM) | < 100 nM | < 100 nM | 500 nM | < 100 nM | < 100 nM | 280 nM |
| Cc1c2oc3c(C)ccc(C(=O)N[C@@H]4C(=O)N[C@H](C(C)C)C(=O)N5[C@H](C(=O)N(C)CC(=O)N(C)[C@@H](C(C)C)C(=O)O[C@@H]4C)[C@@H](O)C[C@@H]5C)c3nc-2c(C(=O)N[C@@H]2C(=O)N[C@H](C(C)C)C(=O)N3[C@@H](C)C(=O)C[C@H]3C(=O)N(C)CC(=O)N(C)[C@@H](C)C(=O)O[C@H]2CO)c(N)c1=O [ACTINOMYCIN Z1] | 950 nM | > 50 µM | 5.5 µM | 12.5 µg/mL (≈ 9.6 µM) | < 500 nM | > 50000 nM | > 50000 nM | 750 nM | 5800 nM | > 50000 nM |
| Cc1c2oc3c(C)ccc(C(=O)N[C@@H]4C(=O)N[C@H](C(C)C)C(=O)N5[C@@H](C)CC[C@H]5C(=O)N(C)CC(=O)N(C)[C@@H](C(C)C)C(=O)O[C@@H]4C)c3nc-2c(C(=O)N[C@@H]2C(=O)N[C@H](C(C)C)C(=O)N3[C@@H](C)C(=O)C[C@H]3C(=O)N(C)CC(=O)N(C)[C@@H](C)C(=O)O[C@H]2CCl)c(N)c1=O [ACTINOMYCIN Z5] | 1500 nM | > 50 µM | 10 µM | 0.78 µg/mL (≈ 0.598 µM) | < 100 nM | 120 nM | 500 nM | < 100 nM | < 100 nM | 500 nM |
| Cc1c2oc3c(C)ccc(C(=O)N[C@@H]4C(=O)N[C@H](C(C)C)C(=O)N5CCC[C@H]5C(=O)N(C)CC(=O)N(C)[C@@H](C(C)C)C(=O)O[C@@H]4C)c3nc-2c(C(=O)N[C@@H]2C(=O)N[C@H](C(C)C)C(=O)N3CCC[C@H]3C(=O)N(C)CC(=O)N(C)[C@@H](C(C)C)C(=O)O[C@@H]2C)c(N)c1=O [DACTINOMYCIN] (I: T[dV]P[Sar][NMeV] / II: T[dV]P[Sar][NMeV]; ester I:1-I:C, II:1-II:C; linker I:N-II:N via Actinocin(1to9)) | 1000 nM |  | 4 µM | 0.78 µg/mL (≈ 0.621 µM) | 500 nM | 2200 nM | > 50000 nM | 300 nM | 800 nM | > 50000 nM |
